According to patent US10307389B2, “Succinate prodrugs for use in the treatment of lactic acidosis or drug-induced side-effects due to Complex I-related impairment of mitochondrial oxidative phosphorylation” (NEUROVIVE PHARMACEUTICAL AB, priority 2014, dated 2019):
Entries after “also recorded” stand apart in the source; their conditions may differ.

What was measured:
[1] = test system: intact human blood cells with inhibited complex I in human plasma; test: Screening assay 4: cells with inhibited respiratory complex I in human plasma; assay type: cell-based; parameters: key: (+): Brackets [( )] indicate an intermediate effect, i.e. (+++) is between ++ and +++; graded either +, ++ or +++ in increasing order of potency; (++): Brackets [( )] indicate an intermediate effect, i.e. (+++) is between ++ and +++; graded either +, ++ or +++ in increasing order of potency; (+++) is between ++ and +++; graded either +, ++ or +++ in increasing order of potency; details: screening assay 4, complex I inhibited
Description: Measurement of mitochondrial respirationise performed in a high-resolution oxygraph (Oxygraph-2k, Oroboros Instruments, Innsbruck, Austria) at a constant temperature of 37° C. […] Intact human blood cells are incubated in plasma from the same donor. […] The experiment is terminated by addition of Antimycin at final concentration 1 μg/mL and any residual non-mitochondrial oxygen consumption is measured.

[2] = test system: intact cells; test: Screening assay 3: uncoupling in intact cells; for Uncoupling: level of oxygen consumption after addition of oligomycin: tested at 1000 µM; assay type: cell-based, human; parameters: key: (+): Brackets [( )] indicate an intermediate effect, i.e. (+++) is between ++ and +++; graded either +, ++ or +++ in increasing order of potency; (++): Brackets [( )] indicate an intermediate effect, i.e. (+++) is between ++ and +++; graded either +, ++ or +++ in increasing order of potency; (+++) is between ++ and +++; graded either +, ++ or +++ in increasing order of potency; details: for Uncoupling: level of oxygen consumption after addition of oligomycin: screening assay 3; for Convergent (Routine): increase in mitochondrial oxygen consumption: screening assay 3, 1 mM compound
Description: Measurement of mitochondrial respirationise performed in a high-resolution oxygraph (Oxygraph-2k, Oroboros Instruments, Innsbruck, Austria) at a constant temperature of 37° C. […] In the third protocol, the same buffer as described above is used. […] Subsequently, the ATP-synthase-inhibitor Oligomycin is added. A reduction in respiration is a measure of how much of the oxygen consumption that is coupled to ATP synthesis. No, or only a slight, reduction indicate that the compound is inducing a proton leak over the inner mitochondrial membrane. The uncoupler FCCP is then titrated to induce maximum uncoupled respiration. […] The experiment is terminated by the addition of 1 μg/mL of the complex III inhibitor Antimycin to measure non-mitochondrial oxygen consumption.

[3] = test system: intact cells; test: Screening assay 2: enhancement and inhibition of mitochondrial energy producing function in intact cells (FCCP); assay type: cell-based, human; parameters: key to Convergent (FCCP): increase in mitochondrial oxygen consumption: (+): Brackets [( )] indicate an intermediate effect, i.e. (+++) is between ++ and +++; graded either +, ++ or +++ in increasing order of potency; (++): Brackets [( )] indicate an intermediate effect, i.e. (+++) is between ++ and +++; graded either +, ++ or +++ in increasing order of potency; (+++) is between ++ and +++; graded either +, ++ or +++ in increasing order of potency; details: for Toxicity: lowest concentration during compound titration at which a decrease in oxygen consumption is seen: screening assay 2; for Convergent (FCCP): increase in mitochondrial oxygen consumption: screening assay 2, uncoupled conditions
Description: (§1) Measurement of mitochondrial respirationise performed in a high-resolution oxygraph (Oxygraph-2k, Oroboros Instruments, Innsbruck, Austria) at a constant temperature of 37° C. Isolated human platelets, white blood cells, fibroblasts, human heart muscle fibers or other cell types containing live mitochondria are suspended in a 2 mL glass chamber at a concentration sufficient to yield oxygen consumption in the medium of 10 pmol O2 s^−1 mL^−1.
In the second protocol the same buffer is used as described above. After basal respiration is established, the mitochondrial uncoupler FCCP is added at a concentration of 2 nM to increase metabolic demand.

[4] = test system: cells with inhibited respiratory complex I; test: Screening assay 1: enhancement of mitochondrial energy producing function in cells with inhibited respiratory complex I; assay type: cell-based, human; parameters: key: (+): Brackets [( )] indicate an intermediate effect, i.e. (+++) is between ++ and +++; graded either +, ++ or +++ in increasing order of potency; (++): Brackets [( )] indicate an intermediate effect, i.e. (+++) is between ++ and +++; graded either +, ++ or +++ in increasing order of potency; (+++) is between ++ and +++; graded either +, ++ or +++ in increasing order of potency; details: screening assay 1, complex I inhibited with rotenone 2 μM
Description: as §1
Cells are placed in a buffer containing 110 mM sucrose, HEPES 20 mM, taurine 20 mM, K-lactobionate 60 mM, MgCl2 3 mM, KH2PO4 10 mM, EGTA 0.5 mM, BSA 1 g/l, pH 7.1. […] Compounds dissolved in DMSO are titrated in a range of 10 μM to 10 mM final concentration. Subsequently, cell membranes are permeabilised with digitonin (1 mg/1*10^6 plt) to allow entry of extracellularly released energy substrate or cell impermeable energy substrates. After stabilized respiration, Succinate 10 mM is added as a reference to enable respiration downstream of complex I. After the respiration stabilized the experiment is terminated by addition of Antimycin at final concentration 1 μg/mL and any residual non-mitochondrial oxygen consumption is measured. An increase in respiration rate in the described protocol is tightly coupled to ATP synthesis by oxidative phosphorylation unless cells are uncoupled (i.e. proton leak without production of ATP). Uncoupling is tested for by addition of the ATP synthase inhibitor oligomycin (1-2 μg mL^−1) in a protocol 3 where the extent of uncoupling corresponds to the respiratory rate following oligomycin addition.

[5] = test system: intact human platelets; test: Intervention on rotenone- or metformin-induced lactate production with cell-permeable succinate prodrugs; assay type: cell-based; details: for effect on metformin-induced lactate production: 10 mM metformin, additions of 250 μM each 30 minutes; for effect on rotenone-induced lactate production: 2 μM rotenone, repeated additions of 250 μM
Description: Lactate levels are determined every 30 min using the Lactate Pro™ 2 blood lactate test meter (Arkray, Alere A B, Lidingö, Sweden) or similar types of measurements. Incubation is performed at 37° C. pH is measured at start, after 4 and after 8 h (or more frequently) of incubation using a Standard pH Meter, e.g. PHM210 (Radiometer, Copenhagen, Denmark). Drug candidates are added to the assay from start or following 30-60 min at concentrations within the range 10 μM-5 mM. […] In order to evaluate the specificity of the drug candidate, it is also tested in combination with a down-stream inhibitor of respiration such as the complex III inhibitor Antimycin at 1 μg/mL, which should abolish the effect of the drug candidate and restore the production of lactate.
Lactate levels were measured in intervals of 30 min with the onset of the experiment.

Row | Compound | CII (plasma): increase in mitochondrial oxygen consumption [1] | Uncoupling: level of oxygen consumption after addition of oligomycin [2] | Convergent (Routine): increase in mitochondrial oxygen consumption [2] | Toxicity: lowest concentration during compound titration at which a decrease in oxygen consumption is seen [3] [mM] | Convergent (FCCP): increase in mitochondrial oxygen consumption [3] | CII: increase in mitochondrial oxygen consumption [4] | effect on metformin-induced lactate production [5] | effect on rotenone-induced lactate production [5]
1 | CCC(=O)N[C@@H](CSC(=O)CCC(=O)SC[C@H](NC(=O)CC)C(=O)OC)C(=O)OC [Compound 01-205, (R)-methyl 3-(4-((R)-3-methoxy-3-oxo-2-propionamidopropylthio)-4-oxobutanoylthio)-2-propionamidopropanoate] | + | (+) | +++ | 5 | ++ | ++ | – | –
2 | CCC(=O)NCCSC(=O)CCC(=O)O [Compound 01-114, 4-oxo-4-(2-propionamidoethylthio)butanoic acid] | + | (+) | +++ | 10 | ++ | ++ | – | –
3 | CC(=O)NCC(C)(C)SC(=O)CCC(=O)O [Compound 01-188, 4-(1-acetamido-2-methylpropan-2-ylthio)-4-oxobutanoic acid] | + | (+) | +++ | 5 | +++ | + | – | –
4 | CCN(CC)C(=O)COCCSC(=O)CCC(=O)O [Compound 01-193, 4-(2-(2-(diethylamino)-2-oxoethoxy)ethylthio)-4-oxobutanoic acid] | (+) | + | (++) | 5 | + | + | – | –
5 | CC(=O)OC(CCCOC(=O)CCC(=O)O)OC(=O)CCC(=O)O (centres unmarked) [Compound 01-134] | (+) | (+) | ++ | 10 | (+) | (+) | – | –
6 | succinate [reference compound] | – | – | – | – | – | – | did not change this; also recorded: did not reduce | –
7 | CCC(=O)N[C@@H](CSC(=O)CCC(=O)SC[C@H](NC(=O)CC)C(=O)N(CC)CC)C(=O)N(CC)CC [Compound 01-185, S,S-bis((R)-3-(diethylamino)-3-oxo-2-propionamidopropyl) butanebis(thioate)] | + | (+) | (+) | 2 | + | + | – | –
8 | CCC(=O)N[C@@H](CSC(=O)CCC(=O)O)C(=O)O [Compound 01-041, (R)-4-(2-carboxy-2-propionamidoethylthio)-4-oxobutanoic acid] | + | (+) | + | 5 | +++ | ++ | – | –
9 | CC(=O)OC(C)OC(=O)CCC(=O)OC(C)OC(C)=O (centres unmarked) [NV189, Succinic acid bis-(1-acetoxy-ethyl) ester] | – | – | – | – | – | – | significantly decreased | attenuated; also recorded: brought back to normal
10 | CC(=O)NCCSC(=O)CCC(=O)O [Compound 01-108, 4-(2-acetamidoethylthio)-4-oxobutanoic acid] | (+) | + | ++ | 10 | ++ | (++) | – | –
11 | CC(=O)OC(CCCN1C(=O)c2ccccc2C1=O)OC(=O)CCC(=O)O (centres unmarked) [Compound 01-150, 4-(1-acetoxy-4-(1,3-dioxoisoindolin-2-yl)butoxy)-4-oxobutanoic acid] | (+) | (+) | +++ | 2 | + | ++ | – | –
12 | CC(=O)OCOC(=O)CCC(=O)OC(C)OC(C)=O (centres unmarked) [NV241, Succinic acid 1-acetoxy-ethyl ester acetoxymethyl ester] | – | – | – | – | – | – | significantly decreased | attenuated
